# Assay results as given in US20240293493A1, “COMPOSITION FOR ALLEVIATING, TREATING, OR PREVENTING MUSCULAR DISEASES, OR IMPROVING MUSCULAR FUNCTIONS, CONTAINING KOREAN MINT EXTRACT OR TILIANIN AS ACTIVE INGREDIENT” (AAT COSTECH CO., LTD., priority 2020, published 2024).
# Experiments:
# [1] = system: mTOR; test: mTOR activity in L6 myotubes by mTOR sandwich ELISA kit; assay type: cell-based; conditions: 20 μM or 40 μM tilianin, vs control group
# Protocol: It is known that the activation of the mTOR protein by phosphorylation can induce muscle protein synthesis in muscle cells by the PI3K/Akt signaling pathway and can activate proteins involved in increase of muscle mass. Therefore, in order to investigate the activity of inducing muscle formation of Korean mint, the activity of mTOR was investigated using a mTOR sandwich ELISA kit (Cell Signaling Technology, Beverly, MA, USA).
# L6 myoblasts (ATCC; Manassas, VA, USA) were seeded on a 6-well plate at 1×10^5 cells/well with Dulbecco's modified Eagle's medium (DMEM; Hyclone) containing 10% fetal bovine serum (FBS; Hyclone, Logan, UT, USA) and then cultured for 24 hours. […]
# (Hyclone) containing 2% horse serum (HS; Hyclone). […] Proteins in the obtained cell lysate were quantified at a concentration of 1 mg/mL by Bradford assay (Bio-Rad Laboratories Inc., Hercules, CA, USA). […] 2 minutes later, the mTOR level in the myotubes treated with the extract of Korean mint leaf was measured by measuring absorbance at 450 nm. […] The difference between groups was analyzed through Duncan's multiple range test by one-way analysis of variance using the SPSS25.0 statistical package (SPSS Inc., Chicago, IL, USA). […]
# mTOR activity was measured in the same manner as in Example 3 except that the extracts of the aerial part of Korean mint of Example 1-2 to Example 1-8 were treated at 80 μg/mL. […]
# [2] = system: MuRF1; test: MuRF1 mRNA expression in TNF-α-treated L6 myotubes (RT-PCR); assay type: cell-based; conditions: TNF-α treatment, 20 µM or 40 µM tilianin
# Protocol: (§1) L6 myoblasts (ATCC), which are muscle cells, were added to a 6-well plate with DMEM (Hyclone) containing 10% FBS (Hyclone) at 1×10^5 cells/mL. When the cell density reached about 80-85%, the medium remaining in the well was removed and differentiation into myotubes was induced by treating the cells with DMEM (Hyclone) containing 2% HS (Hyclone). The differentiation was performed for a total of 6 days while replacing the medium with a fresh one every 2 days. After the differentiation, […], which was dissolved in DMEM (Hyclone) containing 50 ng/ml tumor necrosis factor alpha (TNF-α; PeproTech, Rocky Hills, NJ, USA). 12 hours later, total RNA was isolated using a TRIzol reagent (Takara, Otsu, Japan). The isolated total RNA was quantified using NanoDrop 1000 (Thermo Fisher Scientific Inc., Waltham, MA, USA). cDNA was synthesized from 16 μL of the quantified RNAs using a reverse transcriptase premix (ELPIS-Biotech) and a PCR machine (Gene Amp PCR System 2700; Applied Biosystems, Foster City, CA, USA) under the condition of 42° C. for 55 minutes and 70° C. for 15 minutes. PCR was performed by repeating 30 cycles of 95° C. for 30 seconds, 60° C. for 1 minute and 72° C. for 1 minute using 1 μL of cDNA from 16 μL of the produced cDNA, specific primers described below (Bioneer, Daejeon, Korea) and a PCR premix (ELPIS-Biotech). […]
# [3] = system: atrogin-1; test: atrogin-1 mRNA expression in TNF-α-treated L6 myotubes (RT-PCR); assay type: cell-based; conditions: TNF-α treatment, 20 µM or 40 µM tilianin
# Protocol: as §1
# [4] = system: muscle atrophy-induced mice; test: Muscular strength in mice with skin-stapler immobilization muscle atrophy; assay type: in vivo, mice (C57BL/6J); conditions: tilianin 20 mg/kg orally every day, compared with muscle atrophy group
# Protocol: (§2) 7-week-old male mice (C57BL/6J; DBL, Korea) were purchased as experimental animals. The breeding environment was maintained at a temperature of 23±2° C. and a relative humidity of 55±10%. Before the start of the experiment, a total of 20 mice were randomly divided into groups of 5 mice each. After a week of acclimation, anesthesia was induced by intraperitoneal injection of 325 mg/kg tribromoethanol (Sigma-Aldrich). After the anesthesia, the right hindlimb gastrocnemius muscle and the right sole of the mice in a muscle atrophy group and a sample administration group were stapled using a skin stapler (Unidus, Chungcheongbuk-do, Korea) to damage the muscle and keep the right hindlimb from moving. This state was maintained for a week. […]
# After the end of the oral administration period, the muscular strength of the mice was measured using a muscular strength meter (Panlab, Barcelona, Spain). […]
# (§3) After inducing muscle atrophy in the same manner as in Example 12-1, tilianin was orally administered every day at a concentration of 20 mg/kg. Then, muscular strength and muscle weight were measured in the same manner as in Example 12-2 and Example 12-3.
# [5] = system: muscle atrophy-induced mice; test: Tibialis anterior muscle weight in muscle atrophy-induced mice; assay type: in vivo, mice (C57BL/6J); conditions: tilianin 20 mg/kg orally every day, compared with muscle atrophy group
# Protocol: as §2, §3
structure (smiles),measurement,setting,value
COc1ccc(-c2cc(=O)c3c(O)cc(O[C@@H]4O[C@H](CO)[C@@H](O)[C@H](O)[C@H]4O)cc3o2)cc1 [tilianin],mTOR activity (FIG. 3),[1],significantly increased
same,mRNA of MuRF1 (FIG. 4),[2],decreased
same,mRNA of atrogin-1 (FIG. 4),[3],decreased
same,increase of muscular strength,[4],30.3%
same,increase of muscle weight,[5],15.2%
